Experimental data taken from patent US9339564B2, “Ether and alkyl phospholipid compounds for treating cancer and imaging and detection of cancer” (Cellectar, Inc., priority 2009, dated 2016).

Legend:
[1] = system: solid xenograft and spontaneous human tumor and rodent tumor models; experiment: Tumor uptake and retention of CLR1404 in tumor models; type: in vivo; conditions: over fifty solid xenograft and spontaneous human tumor and rodent tumor models
Excerpt: (§1) We have developed several series of tumor-selective radiolabeled ether and alkyl phospholipid compounds for imaging, characterization, and treatment of malignant tumors. […] Cellular signaling and regulation of phospholipids, including phospholipase-D and its isoforms, as well as Phosphatase and Tensin Homologue Deleted from Chromosome-10 (PTEN) and phosphatidylinositol phosphate (PIPn) pathways, are known to be directly involved in upstream regulation of many key oncogenic pathways. We now have strong evidence that the uptake and retention of our PLE analogs is due at least in part to these upstream regulation and signaling cancer cell pathways.

[2] = system: benign or premalignant lesions or inflammatory lesions; experiment: Localization of CLR1404 in non-malignant lesions; type: in vivo; conditions: stated in contrast to 18F-FDG
Excerpt: as §1

SMILES: C[N+](C)(C)CCOP(=O)([O-])OCCCCCCCCCCCCCCCCCCc1ccc(I)cc1 [CLR1404, 18-(p-iodophenyl)octadecyl phosphocholine]
- uptake and retention in tumors [1]: striking uptake and prolonged selective retention properties
- localization in benign, premalignant or inflammatory lesions [2]: does not localize in benign or premalignant lesions or in inflammatory lesions
